# Results reported in patent publication US7521418B2, “Use of a polyene macrolide antifungal agent in combination with a glycopeptide antibacterial agent” (Theravance, Inc., priority 2003, dated 2009).
# Test system: R. microsporus ATCC 14050
# Assay: Checkerboard MIC assay, FICI
# Type: cell-based, Rhizopus microsporus
# Conditions: combination with Compound 1
# From the text: The following assay was used to determine the minimum inhibitory concentration (MIC) and fractional inhibitory concentration index (FICI) for combinations of an antifungal agent and a glycopeptide antibacterial agent. This assay and methods for calculating FICI are well known in the art. See, for example, Eliopoulos, E. G. and R. Moellering, Jr. “Antimicrobial Combinations” in Antibiotics in Laboratory Medicine, edited by V. Lorian, 4th Ed., Williams & Wilkins, Baltimore, MD, pp. 330-396 (1996); […] et al., Antimicrobial Agents and Chemotherapy 47(4):1416-1418 (2003); or […] et al., Antimicrobial Agents and Chemotherapy 46(10):3323-3326 (2002). […] The MIC of the glycopeptide antibacterial agent determined from this experiment was used in FIC calculations. […]
compound,measurement,value
C[C@@H]1[C@H](O)[C@@H](C)/C=C/C=C/C=C/C=C/C=C/C=C/C=C/[C@H](O[C@@H]2O[C@H](C)[C@@H](O)[C@H](N)[C@@H]2O)C[C@@H]2O[C@](O)(C[C@@H](O)C[C@@H](O)[C@H](O)CC[C@@H](O)C[C@@H](O)CC(=O)O[C@H]1C)C[C@H](O)[C@H]2C(=O)O [Amphotericin B],FICI,0.27
C[C@@H]1[C@H](O)[C@@H](C)/C=C/C=C/CC/C=C/C=C/C=C/C=C/C(O[C@H]2O[C@H](C)[C@@H](O)[C@H](N)[C@@H]2O)CC2O[C@](O)(CC(O)C(O)CCC(O)CC(O)CC(O)CC(=O)O[C@H]1C)CC(O)C2C(=O)O (some centres unmarked) [Nystatin],FICI,0.51
